According to PMC7101356, “Cross-site and cross-platform variability of automated patch clamp assessments of drug effects on human cardiac currents in recombinant cells” (Scientific Reports, 2020):

Legend:
hCav1.2 = hCav1.2 (Homo sapiens, UniProt Q13936); assay: Automated patch clamp, hCav1.2 current block
hERG [1] = biological target: T1, hERG (Homo sapiens, UniProt Q12809); assay: Automated patch clamp, hERG current block (consensus step-ramp protocol); conditions: for hERG K+ current inhibition, Mean, at maximal concentration: max conc [mol/L]: bep 3.00E-07, cpz 3.00E-06, cis 3.00E-07, dil 1.00E-04, dof 1.00E-07, mex 1.00E-04, ond 1.00E-05, qui 1.00E-05, ran 1.00E-04, sot 3.00E-04, ter 3.00E-07, ver 1.00E-06; for hERG K+ current inhibition, Mean, at minimal concentration: min conc [mol/L]: bep 1.00E-08, cpz 1.00E-07, cis 1.00E-09, dil 3.00E-06, dof 1.00E-09, mex 1.00E-06, ond 3.00E-07, qui 1.00E-07, ran 3.00E-06, sot 1.00E-05, ter 1.00E-08, ver 3.00E-08
hERG [2] = biological target: T1, hERG; assay: Automated patch clamp, hERG current block, Milnes protocol (site s06); format: cell-based; design: expressed in transfected cells; host or cells: HEK293 or CHO, depending on site (site s06, Milnes protocol: HEK293); conditions: s06_p4, HEK293, 22–24 °C
Source text: Thus, a single test site (s06) elicited hERG current with a 10-s depolarizing voltage step from −80 mV to 0 mV every 25 s (Milnes protocol, see Milnes et al.[14]).
The steady state current at each concentration was used to determine the concentration-response relationships. Mean concentration-response data were fitted to a standard sigmoidal four-parameter logistic equation (GraphPad Prism 7; GraphPad Inc., La Jolla, CA) of the form: Y=Bottom+(Top−Bottom)/(1+10^∧(LogIC50−X)∗HillSlope) where Y is the current inhibition (in % of pre-drug control), X is the logarithm of drug concentration, and IC50 is the drug concentration producing half-maximal current inhibition. Curve fitting was performed using the following constraints: Top = 100%, Bottom = 0%, Hill Slope <2. No curve fitting was performed in cases with an obvious lack of a concentration-dependent current inhibition and/or small effect size (approximately ≤20%).
This protocol consists of a set of two 25-s-long pulse protocols, with one protocol (“Pulse”) containing a prolonged 10-s-long depolarizing test pulse (0 mV) followed by a 14-s-long return pulse to −80 mV, and a second protocol “No-Pulse” consisting of the same pulse structure without the depolarizing test pulse[18].

[3] = s03_p2, HEK293, room temperature
[4] = s16_p3, HEK293, room temperature

T1 sequence (Q12809 whole entry): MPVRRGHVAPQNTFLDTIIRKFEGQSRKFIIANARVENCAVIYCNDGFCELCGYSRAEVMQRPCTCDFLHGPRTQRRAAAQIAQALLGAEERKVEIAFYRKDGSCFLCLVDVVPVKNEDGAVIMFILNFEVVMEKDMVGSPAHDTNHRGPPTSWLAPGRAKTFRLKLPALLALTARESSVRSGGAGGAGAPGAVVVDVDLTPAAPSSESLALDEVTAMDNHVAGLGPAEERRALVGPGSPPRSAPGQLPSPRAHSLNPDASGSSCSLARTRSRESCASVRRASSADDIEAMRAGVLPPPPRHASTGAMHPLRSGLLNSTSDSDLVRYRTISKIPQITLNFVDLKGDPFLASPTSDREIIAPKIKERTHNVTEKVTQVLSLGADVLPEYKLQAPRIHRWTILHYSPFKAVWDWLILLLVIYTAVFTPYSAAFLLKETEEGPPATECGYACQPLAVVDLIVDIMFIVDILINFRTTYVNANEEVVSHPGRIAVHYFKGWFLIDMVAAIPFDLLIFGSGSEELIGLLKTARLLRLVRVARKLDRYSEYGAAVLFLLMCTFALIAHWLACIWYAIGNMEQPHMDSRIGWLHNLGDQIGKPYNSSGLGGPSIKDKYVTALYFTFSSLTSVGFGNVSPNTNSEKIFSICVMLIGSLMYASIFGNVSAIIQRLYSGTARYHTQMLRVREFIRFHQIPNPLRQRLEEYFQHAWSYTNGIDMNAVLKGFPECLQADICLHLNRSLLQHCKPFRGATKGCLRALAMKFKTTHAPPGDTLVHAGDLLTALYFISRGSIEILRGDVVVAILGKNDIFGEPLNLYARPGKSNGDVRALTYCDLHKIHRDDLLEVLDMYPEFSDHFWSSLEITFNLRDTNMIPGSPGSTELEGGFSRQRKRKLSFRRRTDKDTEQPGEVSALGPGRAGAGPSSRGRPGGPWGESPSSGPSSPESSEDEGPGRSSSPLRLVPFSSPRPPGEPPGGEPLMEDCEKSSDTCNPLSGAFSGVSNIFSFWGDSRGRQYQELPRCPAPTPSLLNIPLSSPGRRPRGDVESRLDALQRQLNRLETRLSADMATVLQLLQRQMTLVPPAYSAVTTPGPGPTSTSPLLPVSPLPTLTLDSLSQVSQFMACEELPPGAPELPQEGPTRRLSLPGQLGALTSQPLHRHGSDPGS
Sequence of hCav1.2 (Q13936 whole entry): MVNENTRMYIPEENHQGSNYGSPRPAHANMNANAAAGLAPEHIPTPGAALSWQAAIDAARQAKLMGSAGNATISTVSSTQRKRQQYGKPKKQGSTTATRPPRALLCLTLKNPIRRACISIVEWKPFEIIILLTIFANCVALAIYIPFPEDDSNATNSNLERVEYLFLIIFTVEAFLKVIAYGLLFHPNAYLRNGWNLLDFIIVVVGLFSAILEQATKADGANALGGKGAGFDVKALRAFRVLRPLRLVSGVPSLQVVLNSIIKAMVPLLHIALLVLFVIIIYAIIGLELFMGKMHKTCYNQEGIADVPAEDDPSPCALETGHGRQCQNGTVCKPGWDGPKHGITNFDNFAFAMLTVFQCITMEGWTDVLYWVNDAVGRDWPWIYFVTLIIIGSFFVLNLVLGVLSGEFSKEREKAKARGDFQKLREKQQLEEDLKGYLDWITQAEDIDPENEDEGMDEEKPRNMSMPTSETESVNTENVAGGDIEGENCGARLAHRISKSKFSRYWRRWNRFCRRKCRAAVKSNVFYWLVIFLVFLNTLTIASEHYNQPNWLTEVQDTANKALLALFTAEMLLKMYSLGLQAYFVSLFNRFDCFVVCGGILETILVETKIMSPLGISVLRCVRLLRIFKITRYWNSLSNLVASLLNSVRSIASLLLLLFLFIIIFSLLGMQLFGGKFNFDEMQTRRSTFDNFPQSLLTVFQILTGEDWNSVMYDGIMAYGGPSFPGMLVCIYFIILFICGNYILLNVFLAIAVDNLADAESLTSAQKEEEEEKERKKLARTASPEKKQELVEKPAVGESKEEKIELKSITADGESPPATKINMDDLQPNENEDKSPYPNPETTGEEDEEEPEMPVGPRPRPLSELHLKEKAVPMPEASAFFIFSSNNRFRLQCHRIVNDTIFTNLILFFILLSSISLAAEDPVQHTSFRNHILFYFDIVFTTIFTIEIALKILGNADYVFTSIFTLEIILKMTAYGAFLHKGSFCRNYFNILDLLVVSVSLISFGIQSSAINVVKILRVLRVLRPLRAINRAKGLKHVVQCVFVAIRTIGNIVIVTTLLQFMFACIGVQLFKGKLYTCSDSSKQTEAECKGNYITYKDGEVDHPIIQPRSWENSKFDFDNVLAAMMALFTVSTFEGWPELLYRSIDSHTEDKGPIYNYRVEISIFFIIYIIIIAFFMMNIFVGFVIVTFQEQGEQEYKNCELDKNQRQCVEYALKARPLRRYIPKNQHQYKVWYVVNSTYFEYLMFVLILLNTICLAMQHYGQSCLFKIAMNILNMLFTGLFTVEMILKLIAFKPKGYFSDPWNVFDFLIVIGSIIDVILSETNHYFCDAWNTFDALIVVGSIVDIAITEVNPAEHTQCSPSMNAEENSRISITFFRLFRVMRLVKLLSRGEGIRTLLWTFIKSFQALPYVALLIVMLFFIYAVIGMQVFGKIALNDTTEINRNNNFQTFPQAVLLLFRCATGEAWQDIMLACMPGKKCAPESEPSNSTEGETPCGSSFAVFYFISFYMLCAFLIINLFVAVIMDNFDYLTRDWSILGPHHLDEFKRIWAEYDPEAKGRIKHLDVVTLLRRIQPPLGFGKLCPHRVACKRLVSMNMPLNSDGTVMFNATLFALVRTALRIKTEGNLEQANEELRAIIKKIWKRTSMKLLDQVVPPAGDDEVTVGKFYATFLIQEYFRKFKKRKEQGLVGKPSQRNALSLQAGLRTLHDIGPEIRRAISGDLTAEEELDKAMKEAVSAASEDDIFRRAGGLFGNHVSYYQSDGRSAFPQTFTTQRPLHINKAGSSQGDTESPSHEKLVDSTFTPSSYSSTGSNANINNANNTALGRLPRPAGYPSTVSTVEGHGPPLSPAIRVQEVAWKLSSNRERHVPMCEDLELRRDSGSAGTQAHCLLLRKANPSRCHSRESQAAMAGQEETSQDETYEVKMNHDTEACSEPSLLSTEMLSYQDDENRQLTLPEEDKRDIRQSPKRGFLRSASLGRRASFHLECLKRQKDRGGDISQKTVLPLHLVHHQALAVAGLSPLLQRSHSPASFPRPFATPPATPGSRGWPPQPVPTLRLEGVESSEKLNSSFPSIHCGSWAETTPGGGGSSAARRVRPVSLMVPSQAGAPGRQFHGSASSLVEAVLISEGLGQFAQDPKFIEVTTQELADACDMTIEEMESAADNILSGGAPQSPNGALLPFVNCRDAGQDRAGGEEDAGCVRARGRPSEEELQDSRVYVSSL
Sequence of hCav1.2 (Q08289 whole entry partner): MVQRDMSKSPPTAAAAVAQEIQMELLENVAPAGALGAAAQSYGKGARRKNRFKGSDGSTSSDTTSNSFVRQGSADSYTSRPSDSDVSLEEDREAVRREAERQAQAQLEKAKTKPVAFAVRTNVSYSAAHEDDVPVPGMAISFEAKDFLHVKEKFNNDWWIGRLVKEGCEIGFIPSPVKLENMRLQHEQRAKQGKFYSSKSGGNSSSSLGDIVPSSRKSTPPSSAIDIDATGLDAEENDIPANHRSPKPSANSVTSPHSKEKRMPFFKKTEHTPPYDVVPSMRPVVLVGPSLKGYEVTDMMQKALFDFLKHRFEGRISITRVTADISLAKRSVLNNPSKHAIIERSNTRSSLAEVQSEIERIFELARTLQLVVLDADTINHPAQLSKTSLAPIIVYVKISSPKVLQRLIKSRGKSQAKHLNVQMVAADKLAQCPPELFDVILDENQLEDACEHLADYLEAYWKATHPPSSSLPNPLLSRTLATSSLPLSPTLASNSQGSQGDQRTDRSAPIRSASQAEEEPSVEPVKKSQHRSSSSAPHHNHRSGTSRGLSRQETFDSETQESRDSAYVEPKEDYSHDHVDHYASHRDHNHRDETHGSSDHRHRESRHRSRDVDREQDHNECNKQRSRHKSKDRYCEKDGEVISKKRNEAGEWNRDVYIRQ
Sequence of hCav1.2 (P54289 25-956 partner limits assumed): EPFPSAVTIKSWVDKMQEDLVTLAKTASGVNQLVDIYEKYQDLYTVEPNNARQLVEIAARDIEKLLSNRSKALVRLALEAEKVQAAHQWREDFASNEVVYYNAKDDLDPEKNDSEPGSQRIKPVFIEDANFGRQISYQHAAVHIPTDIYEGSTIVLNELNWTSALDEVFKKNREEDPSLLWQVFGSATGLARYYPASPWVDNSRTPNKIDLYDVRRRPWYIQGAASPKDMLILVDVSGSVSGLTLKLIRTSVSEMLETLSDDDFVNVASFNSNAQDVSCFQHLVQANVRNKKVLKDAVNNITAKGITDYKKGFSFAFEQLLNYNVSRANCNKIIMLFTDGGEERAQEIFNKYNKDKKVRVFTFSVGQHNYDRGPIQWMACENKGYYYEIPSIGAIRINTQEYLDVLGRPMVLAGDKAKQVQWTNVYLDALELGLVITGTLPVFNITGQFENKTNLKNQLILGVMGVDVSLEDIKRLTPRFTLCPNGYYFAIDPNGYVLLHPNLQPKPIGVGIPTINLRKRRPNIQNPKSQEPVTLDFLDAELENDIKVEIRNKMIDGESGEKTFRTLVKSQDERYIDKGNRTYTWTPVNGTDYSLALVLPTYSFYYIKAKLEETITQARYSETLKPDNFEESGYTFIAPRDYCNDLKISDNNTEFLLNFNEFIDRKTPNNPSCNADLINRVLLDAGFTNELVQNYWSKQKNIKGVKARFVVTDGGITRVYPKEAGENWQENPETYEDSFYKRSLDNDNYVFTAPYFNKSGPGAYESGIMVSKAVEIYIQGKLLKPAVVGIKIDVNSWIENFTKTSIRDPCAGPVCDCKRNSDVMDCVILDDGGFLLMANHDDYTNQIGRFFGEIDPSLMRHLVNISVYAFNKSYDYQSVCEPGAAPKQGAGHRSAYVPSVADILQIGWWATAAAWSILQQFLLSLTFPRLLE
Sequence of hCav1.2 (P54289 957-1103 partner limits assumed): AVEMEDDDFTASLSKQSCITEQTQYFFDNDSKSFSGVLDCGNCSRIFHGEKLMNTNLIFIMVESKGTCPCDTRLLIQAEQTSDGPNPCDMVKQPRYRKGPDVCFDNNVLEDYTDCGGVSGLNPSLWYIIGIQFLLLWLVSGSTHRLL

Q: With `Cc1nccn1CC1CCc2c(c3ccccc3n2C)C1=O` (centres unmarked) [ond, ondansetron] as the compound, how does the “log IC50, half-maximal inhibitory concentration” value (hCav1.2; site s01_p1) read?
A: Its value is “no inh”.

Q: What about the “Peak hCav1.2 Ca2+ current inhibition, Mean” value (hCav1.2; site s01_p1, 3.00E-07 mol/L) of the same compound?
A: The value was 3.2%.

Q: What about the “log IC50, half-maximal inhibitory concentration” value (hCav1.2; site s02_p2, corrected for rundown) of the same compound?
A: Its value is “no inh”.

Q: And the “Peak hCav1.2 Ca2+ current inhibition, Mean” value (hCav1.2; site s02_p2, corrected for rundown, 3.00E-07 mol/L)?
A: Its value is -6.3%.

Q: And the “nH, Hill slope” value (hCav1.2; site s04_p3)?
A: The value was 0.60.

Q: What about the “Peak hCav1.2 Ca2+ current inhibition, Mean” value (hCav1.2; site s04_p3, 1.00E-05 mol/L) of the same compound?
A: Its value is 16.1%.

Q: What about the “Peak hCav1.2 Ca2+ current inhibition, Mean” value (hCav1.2; site s04_p3, 3.00E-07 mol/L) of the same compound?
A: Its value is 2.6%.

Q: What about the “log IC50, half-maximal inhibitory concentration” value (hCav1.2; site s06_p4) of the same compound?
A: The value was “no inh”.

Q: And the “Peak hCav1.2 Ca2+ current inhibition, Mean” value (hCav1.2; site s06_p4, 3.00E-07 mol/L)?
A: Its value is 18.9%.

Q: What about the “log IC50, half-maximal inhibitory concentration” value (hCav1.2; site s11_p1) of the same compound?
A: Its value is “no inh”.

Q: What about the “Peak hCav1.2 Ca2+ current inhibition, Mean” value (hCav1.2; site s11_p1, 3.00E-07 mol/L) of the same compound?
A: The value was 19.7%.

Q: And the “nH, Hill slope” value (hCav1.2; site s14_p1)?
A: Its value is 2.00.

Q: What about the “Peak hCav1.2 Ca2+ current inhibition, Mean” value (hCav1.2; site s14_p1, 3.00E-07 mol/L) of the same compound?
A: The value was 4.0%.

Q: What about the “nH, Hill slope” value (hCav1.2; site s16_p3) of the same compound?
A: Its value is 0.42.

Q: What about the “Peak hCav1.2 Ca2+ current inhibition, Mean” value (hCav1.2; site s16_p3, 3.00E-07 mol/L) of the same compound?
A: The value was 20.6%.

Q: And the “log IC50, half-maximal inhibitory concentration” value (hCav1.2; site s18_p1)?
A: Its value is “no inh”.

Q: And the “Peak hCav1.2 Ca2+ current inhibition, Mean” value (hCav1.2; site s18_p1, 3.00E-07 mol/L)?
A: Its value is 16.9%.

Q: What about the inhibition at 1e-05 mol/L (hERG [1]; human, recombinant cells expressing hERG, hERG K+ current inhibition, Mean, site_platform s07_p5, 1.00E-05 mol/L) of the same compound?
A: Its inhibition at 1e-05 mol/L is 101%.

Q: And the inhibition at 3e-07 mol/L (hERG [1]; human, recombinant cells expressing hERG, hERG K+ current inhibition, Mean, site_platform s07_p5, 3.00E-07 mol/L)?
A: The inhibition at 3e-07 mol/L was 17%.

Q: What about the inhibition at 4 min, 1e-05 mol/L (hERG [1]; human, recombinant cells expressing hERG, hERG K+ current inhibition, Mean, site_platform s10_p3, 1.00E-05 mol/L) of the same compound?
A: Its inhibition at 4 min, 1e-05 mol/L is 71.8%.

Q: What about the inhibition at 4 min, 3e-07 mol/L (hERG [1]; human, recombinant cells expressing hERG, hERG K+ current inhibition, Mean, site_platform s10_p3, 3.00E-07 mol/L) of the same compound?
A: Its inhibition at 4 min, 3e-07 mol/L is 9.7%.

Q: What about the inhibition at 7 min, 1e-05 mol/L (hERG [1]; human, recombinant cells expressing hERG, hERG K+ current inhibition, Mean, site_platform s11_p1, 1.00E-05 mol/L) of the same compound?
A: The inhibition at 7 min, 1e-05 mol/L was 89.6%.

Q: What about the inhibition at 7 min, 3e-07 mol/L (hERG [1]; human, recombinant cells expressing hERG, hERG K+ current inhibition, Mean, site_platform s11_p1, 3.00E-07 mol/L) of the same compound?
A: Its inhibition at 7 min, 3e-07 mol/L is 11.6%.

Q: And the inhibition at 1e-05 mol/L (hERG [1]; human, recombinant cells expressing hERG, hERG K+ current inhibition, Mean, site_platform s12_p2, 1.00E-05 mol/L)?
A: The inhibition at 1e-05 mol/L was 91.6%.

Q: And the inhibition at 3e-07 mol/L (hERG [1]; human, recombinant cells expressing hERG, hERG K+ current inhibition, Mean, site_platform s12_p2, 3.00E-07 mol/L)?
A: The inhibition at 3e-07 mol/L was 19.3%.

Q: And the inhibition at 1e-05 mol/L (hERG [1]; human, recombinant cells expressing hERG, hERG K+ current inhibition, Mean, site_platform s13_p2, 1.00E-05 mol/L)?
A: The inhibition at 1e-05 mol/L was 90%.

Q: What about the inhibition at 3e-07 mol/L (hERG [1]; human, recombinant cells expressing hERG, hERG K+ current inhibition, Mean, site_platform s13_p2, 3.00E-07 mol/L) of the same compound?
A: The inhibition at 3e-07 mol/L was 11.4%.

Q: And the inhibition at 7 min, 1e-05 mol/L (hERG [1]; human, recombinant cells expressing hERG, hERG K+ current inhibition, Mean, site_platform s14_p1, 1.00E-05 mol/L)?
A: Its inhibition at 7 min, 1e-05 mol/L is 89.4%.

Q: What about the inhibition at 7 min, 3e-07 mol/L (hERG [1]; human, recombinant cells expressing hERG, hERG K+ current inhibition, Mean, site_platform s14_p1, 3.00E-07 mol/L) of the same compound?
A: The inhibition at 7 min, 3e-07 mol/L was 58.7%.

Q: And the “hERG K+ current nH, Hill slope” value (hERG [1]; s01_p1, CHO, 23 °C)?
A: The value was 1.06.

Q: And the “hERG K+ current inhibition, Mean, at maximal concentration” value (hERG [1]; s01_p1, CHO, 23 °C)?
A: Its value is 83.1%.

Q: What about the “hERG K+ current inhibition, Mean, at minimal concentration” value (hERG [1]; s01_p1, CHO, 23 °C) of the same compound?
A: The value was 8.8%.

Q: And the “hERG K+ current nH, Hill slope” value (hERG [1]; s02_p2, HEK293, 22–26 °C)?
A: Its value is 1.07.

Q: What about the “hERG K+ current inhibition, Mean, at maximal concentration” value (hERG [1]; s02_p2, HEK293, 22–26 °C) of the same compound?
A: Its value is 79.8%.

Q: And the “hERG K+ current inhibition, Mean, at minimal concentration” value (hERG [1]; s02_p2, HEK293, 22–26 °C)?
A: The value was 6.1%.

Q: And the “hERG K+ current nH, Hill slope” value (hERG [1]; [3])?
A: The value was 1.08.

Q: What about the “hERG K+ current inhibition, Mean, at maximal concentration” value (hERG [1]; [3]) of the same compound?
A: The value was 99.9%.

Q: And the “hERG K+ current inhibition, Mean, at minimal concentration” value (hERG [1]; [3])?
A: Its value is 37.2%.

Q: And the “hERG K+ current nH, Hill slope” value (hERG [1]; s04_p3, CHO, room temperature)?
A: Its value is 0.97.

Q: And the “hERG K+ current inhibition, Mean, at maximal concentration” value (hERG [1]; s04_p3, CHO, room temperature)?
A: Its value is 90.6%.

Q: And the “hERG K+ current inhibition, Mean, at minimal concentration” value (hERG [1]; s04_p3, CHO, room temperature)?
A: The value was 22.1%.

Q: And the “hERG K+ current nH, Hill slope” value (hERG [1]; s05_p4, HEK293, 22–24 °C)?
A: The value was 1.32.

Q: What about the “hERG K+ current inhibition, Mean, at maximal concentration” value (hERG [1]; s05_p4, HEK293, 22–24 °C) of the same compound?
A: Its value is 93.2%.

Q: What about the “hERG K+ current inhibition, Mean, at minimal concentration” value (hERG [1]; s05_p4, HEK293, 22–24 °C) of the same compound?
A: The value was 9.6%.

Q: And the “hERG K+ current nH, Hill slope” value (hERG [1]; s15_p1, HEK293, 22–23 °C)?
A: The value was 0.88.

Q: And the “hERG K+ current inhibition, Mean, at maximal concentration” value (hERG [1]; s15_p1, HEK293, 22–23 °C)?
A: Its value is 87.4%.

Q: What about the “hERG K+ current inhibition, Mean, at minimal concentration” value (hERG [1]; s15_p1, HEK293, 22–23 °C) of the same compound?
A: The value was 25.2%.

Q: What about the “hERG K+ current nH, Hill slope” value (hERG [1]; [4]) of the same compound?
A: The value was 1.01.

Q: What about the “hERG K+ current inhibition, Mean, at maximal concentration” value (hERG [1]; [4]) of the same compound?
A: The value was 84.1%.

Q: What about the “hERG K+ current inhibition, Mean, at minimal concentration” value (hERG [1]; [4]) of the same compound?
A: Its value is 11.9%.

Q: And the “hERG K+ current nH, Hill slope” value (hERG [1]; s18_p1, CHO, 35 °C)?
A: The value was 1.05.

Q: And the “hERG K+ current inhibition, Mean, at maximal concentration” value (hERG [1]; s18_p1, CHO, 35 °C)?
A: Its value is 85.6%.

Q: What about the “hERG K+ current inhibition, Mean, at minimal concentration” value (hERG [1]; s18_p1, CHO, 35 °C) of the same compound?
A: The value was 12.7%.

Q: And the “hERG K+ current nH, Hill slope” value (hERG [1]; s19_p3, CHO, room temperature)?
A: Its value is 1.01.

Q: And the “hERG K+ current inhibition, Mean, at maximal concentration” value (hERG [1]; s19_p3, CHO, room temperature)?
A: The value was 92.9%.

Q: What about the “hERG K+ current inhibition, Mean, at minimal concentration” value (hERG [1]; s19_p3, CHO, room temperature) of the same compound?
A: Its value is 25.8%.

Q: What about the “nH (Hill slope), hERG K+ current inhibition” value (hERG [1]; site_platform s07_p5) of the same compound?
A: The value was 1.26.

Q: And the “nH (Hill slope), hERG K+ current inhibition” value (hERG [1]; site_platform s10_p3)?
A: The value was 0.98.

Q: What about the “nH (Hill slope), hERG K+ current inhibition” value (hERG [1]; site_platform s11_p1) of the same compound?
A: Its value is 1.10.

Q: And the “nH (Hill slope), hERG K+ current inhibition” value (hERG [1]; site_platform s12_p2)?
A: The value was 1.03.

Q: What about the “nH (Hill slope), hERG K+ current inhibition” value (hERG [1]; site_platform s13_p2) of the same compound?
A: Its value is 1.19.

Q: And the “nH (Hill slope), hERG K+ current inhibition” value (hERG [1]; site_platform s14_p1)?
A: The value was 0.47.

Q: What about the “hERG K+ current nH, Hill slope” value (hERG [2]) of the same compound?
A: The value was 1.05.

Q: And the “hERG K+ current inhibition, Mean, at maximal concentration” value (hERG [2]; max conc [mol/L]: bep 3.00E-07, cpz 3.00E-06, cis 3.00E-07, dil 1.00E-04, dof 1.00E-07, mex 1.00E-04, ond 1.00E-05, qui 1.00E-05, ran 1.00E-04, sot 3.00E-04, ter 3.00E-07, ver 1.00E-06)?
A: Its value is 95.5%.

Q: And the “hERG K+ current inhibition, Mean, at minimal concentration” value (hERG [2]; min conc [mol/L]: bep 1.00E-08, cpz 1.00E-07, cis 1.00E-09, dil 3.00E-06, dof 1.00E-09, mex 1.00E-06, ond 3.00E-07, qui 1.00E-07, ran 3.00E-06, sot 1.00E-05, ter 1.00E-08, ver 3.00E-08)?
A: The value was 25.3%.
